“And” between values parts separate entries of the source, which are not always exact repeats. Equal values may be shown once. Toxic doses and inconclusive results are not listed. Rule for the calls: active = survival T/C of 150% or more; inactive = T/C below 125% in these data.
Test system: CD2F1 mice, L1210 leukemia ip, survival T/C
Assay: NCI In Vivo Anticancer Drug Screen. Data for tumor model L1210 Leukemia (intraperitoneal) in CD2F1 (CDF1) mice
Conditions: higher = longer survival
In short: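 Ratio T/C, where T is the treated-group value and C the vehicle-dosed control value, from mice implanted with a transplantable tumor.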

[1] = endpoint: mean survival time, dose: 100.0 mg/kg/injection, schedule: Q01DX009 (ip), vehicle: saline
[2] = endpoint: mean survival time, dose: 200.0 mg/kg/injection, schedule: Q01DX009 (ip), vehicle: saline
[3] = endpoint: mean survival time, dose: 100.0 mg/kg/injection, schedule: Q04DX003 (ip), vehicle: saline with Tween-80
[4] = endpoint: mean survival time, dose: 200.0 mg/kg/injection, schedule: Q04DX003 (ip), vehicle: saline with Tween-80
[5] = endpoint: mean survival time, dose: 100.0 mg/kg/injection, schedule: Q01DX009 (ip), vehicle: saline with Tween-80
[6] = endpoint: mean survival time, dose: 200.0 mg/kg/injection, schedule: Q01DX009 (ip), vehicle: saline with Tween-80
[7] = endpoint: mean survival time, dose: 400.0 mg/kg/injection, schedule: Q04DX003 (ip), vehicle: saline with Tween-80
[8] = endpoint: mean survival time, dose: 25.0 mg/kg/injection, schedule: Q01DX009 (ip), vehicle: saline with Tween-80
[9] = endpoint: mean survival time, dose: 50.0 mg/kg/injection, schedule: Q01DX009 (ip), vehicle: saline with Tween-80

Measured: T/C

CCCCCCCCCCCC(=O)N(C)CCS(=O)(=O)O
inactive: [1] 103 % of control | [2] 101 % of control | endpoint: mean survival time, dose: 400.0 mg/kg/injection, schedule: Q01DX009 (ip), vehicle: saline 109 % of control

COC(=O)[C@@]12OC[C@]34[C@H]([C@@H](O)[C@@H]1O)[C@@]1(C)CC(=O)C(O)=C(C)[C@@H]1C[C@H]3OC(=O)[C@H](OC(=O)/C=C(\C)C(C)C)[C@@H]24
inactive: endpoint: mean survival time, dose: 125.0 micrograms/kg/injection, schedule: Q01DX009 (ip), vehicle: saline + alcohol 120 % of control | endpoint: mean survival time, dose: 250.0 micrograms/kg/injection, schedule: Q01DX009 (ip), vehicle: saline + alcohol 106 % of control | endpoint: mean survival time, dose: 500.0 micrograms/kg/injection, schedule: Q01DX009 (ip), vehicle: saline + alcohol 112 % of control | endpoint: mean survival time, dose: 1000.0 micrograms/kg/injection, schedule: Q01DX009 (ip), vehicle: saline + alcohol 120 % of control | endpoint: median survival time, dose: 0.25 mg/kg/injection, schedule: Q01DX009 (ip), vehicle: saline + alcohol 120 % of control and 122 % of control | endpoint: median survival time, dose: 0.5 mg/kg/injection, schedule: Q01DX009 (ip), vehicle: saline + alcohol 120 % of control

CCO[Si](C)(OCC)OCC
inactive: endpoint: mean survival time, dose: 50.0 mg/kg/injection, schedule: Q01DX009 (ip), vehicle: saline 101 % of control | [1] 101 % of control | [2] 96 % of control

CSc1ncnc2c1ccn2C1OC(CO)C(O)C1O (stereo not given)
inactive: endpoint: median survival time, dose: 12.5 mg/kg/injection, schedule: Q01DX005 (ip), vehicle: saline 106 % of control | endpoint: median survival time, dose: 25.0 mg/kg/injection, schedule: Q01DX005 (ip), vehicle: saline 105 % of control | endpoint: median survival time, dose: 50.0 mg/kg/injection, schedule: Q01DX005 (ip), vehicle: saline 102 % of control | endpoint: median survival time, dose: 100.0 mg/kg/injection, schedule: Q01DX005 (ip), vehicle: saline 103 % of control | endpoint: median survival time, dose: 200.0 mg/kg/injection, schedule: Q01DX005 (ip), vehicle: saline 94 % of control

Cc1ccc(O)c(N)c1
inactive: [3] 93 % of control | [4] 111 % of control

Cc1ccccc1NC(=O)Oc1c(C)cccc1C
inactive: endpoint: mean survival time, dose: 100.0 mg/kg/injection, schedule: Q04DX002 (ip), vehicle: saline with Tween-80 97 % of control | endpoint: mean survival time, dose: 200.0 mg/kg/injection, schedule: Q04DX002 (ip), vehicle: saline with Tween-80 101 % of control | endpoint: mean survival time, dose: 400.0 mg/kg/injection, schedule: Q04DX002 (ip), vehicle: saline with Tween-80 101 % of control

CC(=O)c1cccc(OCc2ccccc2)c1
inactive: endpoint: mean survival time, dose: 100.0 mg/kg/injection, schedule: Q04DX003 (ip), vehicle: other 96 % of control | endpoint: mean survival time, dose: 200.0 mg/kg/injection, schedule: Q04DX003 (ip), vehicle: other 96 % of control

Cc1c(Br)c(=O)[nH]c2ccccc12
inactive: [5] 96 % of control | [3] 101 % of control | [6] 96 % of control | [4] 98 % of control | endpoint: mean survival time, dose: 400.0 mg/kg/injection, schedule: Q01DX009 (ip), vehicle: saline with Tween-80 94 % of control | [7] 101 % of control

[Cl][Mo]([Cl])([Cl])[Cl].[Cl][Mo]([Cl])([Cl])[Cl]
inactive: endpoint: mean survival time, dose: 100.0 mg/kg/injection, schedule: Q04DX002 (ip), vehicle: saline 112 % of control | endpoint: mean survival time, dose: 200.0 mg/kg/injection, schedule: Q04DX002 (ip), vehicle: saline 87 % of control | endpoint: mean survival time, dose: 400.0 mg/kg/injection, schedule: Q04DX002 (ip), vehicle: saline 108 % of control

Cc1ccc(C(=O)C=C(C(F)(F)F)C(F)(F)F)cc1
inactive: endpoint: mean survival time, dose: 6.25 mg/kg/injection, schedule: Q01DX009 (ip), vehicle: saline with Tween-80 102 % of control | endpoint: mean survival time, dose: 12.5 mg/kg/injection, schedule: Q01DX009 (ip), vehicle: saline with Tween-80 98 % of control | [8] 98 % of control

C[n+]1cccc(C(=O)c2ccccc2)c1
inactive: endpoint: mean survival time, dose: 75.0 mg/kg/injection, schedule: Q01DX001 (ip), vehicle: other 100 % of control

Cc1cc(C)n(C(=S)[S-])n1.Cc1cc(C)n(C(=S)[S-])n1.[Pt+2]
inactive: endpoint: mean survival time, dose: 25.0 mg/kg/injection, schedule: Q04DX003 (ip), vehicle: saline with Tween-80 90 % of control | endpoint: mean survival time, dose: 50.0 mg/kg/injection, schedule: Q04DX003 (ip), vehicle: saline with Tween-80 90 % of control | [3] 105 % of control

COC1OC(COC(C)=O)C(OC(C)=O)C(OC(C)=O)[CH]1[Hg][O]C(C)=O (stereo not given)
inactive: endpoint: mean survival time, dose: 6.25 mg/kg/injection, schedule: Q01DX009 (ip), vehicle: saline 106 % of control | endpoint: mean survival time, dose: 12.5 mg/kg/injection, schedule: Q01DX009 (ip), vehicle: saline 108 % of control | endpoint: mean survival time, dose: 25.0 mg/kg/injection, schedule: Q01DX009 (ip), vehicle: saline 97 % of control

CCNC(=O)Nc1nc2ccccc2[nH]1
inactive: [9] 101 % of control

CC(=O)OC1CCC2(C)C(=CCC3C2CCC2(C)C(C(C)CCCC(C)(C)O)CCC32)C1 (stereo not given)
inactive: [3] 97 % of control | [4] 89 % of control | [7] 94 % of control

O=C(O)C(O)C(O)C(=O)O (stereo not given)
inactive: endpoint: mean survival time, dose: 100.0 mg/kg/injection, schedule: Q01DX001 (ip), vehicle: saline 103 % of control | [5] 102 % of control | [3] 97 % of control | endpoint: mean survival time, dose: 100.0 mg/kg/injection, schedule: Q04DX003 (ip), vehicle: saline 110 % of control | endpoint: mean survival time, dose: 200.0 mg/kg/injection, schedule: Q01DX001 (ip), vehicle: saline 106 % of control | [6] 102 % of control | [4] 92 % of control | endpoint: mean survival time, dose: 200.0 mg/kg/injection, schedule: Q04DX003 (ip), vehicle: saline 98 % of control | endpoint: mean survival time, dose: 400.0 mg/kg/injection, schedule: Q01DX001 (ip), vehicle: saline 110 % of control | [7] 97 % of control | endpoint: mean survival time, dose: 400.0 mg/kg/injection, schedule: Q04DX003 (ip), vehicle: saline 101 % of control

COc1ccc(CCNC(=O)Cc2ccccc2)cc1OC
inactive: [3] 103 % of control | [4] 94 % of control | [7] 91 % of control

COc1ccc2c(Nc3ccc(NS(C)(=O)=O)cc3)c3ccccc3nc2c1
inactive: [8] 100 % of control | [9] 86 % of control | [3] 120 % of control | endpoint: mean survival time, dose: 150.0 mg/kg/injection, schedule: Q04DX003 (ip), vehicle: saline with Tween-80 94 % of control

Reference: PubChem BioAssay AID256 (DTP/NCI, 2004)
